“Also recorded” adds a separate entry of the source. Like-named read-outs stand apart in the source and are kept apart here.
Assays:
BTK [1] = target: T1, BTK (Homo sapiens, UniProt Q06187); experiment: p-BTK after ex vivo BCR stimulation in CD19+/CD5+ CLL tumor cells (phospho-flow cytometry); conditions: CLL patients on oral treatment
[2] = Plasma pharmacokinetics in healthy volunteers; type: in vivo, human; conditions: 15 mg QD Day 1 vs Day 7; 15 mg and 25 mg studies
Description: (§1) Forty, healthy adult, non-tobacco using men and women were enrolled in the study. A 15 mg Formula (II) dose (1×15 mg capsule) was administered once daily (QD) to each subject for 7 consecutive days (Days 1 to 7) with a washout period (6 days). PD blood samples were collected from each subject before dosing on Day 1, throughout the study, and up to 144 hours after dosing on Day 7 to characterize Formula (II) PD effects. PK sampling for Formula (II) was also collected before dosing on Day 1, throughout the study, and for 24 hours after dosing on Day 7. Additionally, potential Formula (II) safety issues were monitored through physical examination, vital sign measurements, 12 lead electrocardiograms (ECGs), AEs and clinical laboratory tests.
The mean measured plasma concentration of Formula (II) versus time data (PK data) and mean occupancy of BTK by Formula (II) (PD data) were fitted with biophase compartment PK and PD models, respectively to enable prediction of PK and PD for different doses, dose regimens and dose durations. The biophase compartment PK model used to fit Formula (II) concentration versus time data is depicted in FIG. 1(A). The model is a naïve, mean data, two-compartment PK model with a delay d(1,3) for oral absorption. Fitting (optimization) was accomplished via weighed least squares. […]

BTK [3] = target: T1, BTK; experiment: BTK occupancy in PBMCs / peripheral blood B lymphocytes of healthy volunteers (active-site probe ELISA); type: in vivo; conditions: for receptor occupancy at 15 mg: human
Description: The presence of inactivated BTK in peripheral blood B lymphocytes was measured using a BTK active-site specific probe in an ELISA assay and expressed as a percentage of pre-study levels.
A Phase 1, single-center, open-label, single-treatment study in healthy volunteers was conducted to assess the BTK occupancy of Formula (II) after multiple-dose administration in healthy adult subjects under fasting conditions. The study primarily focused on characterizing the pharmacodynamics (PD) of Formula (II) by assessing the BTK occupancy profile of Formula (II) in peripheral blood mononuclear cells (PBMCs) and by measuring the expression of lymphocyte B activation markers, CD69 and CD86, during and after multiple oral dose administration of 15 mg daily in healthy subjects. As a secondary objective, the study evaluated the pharmacokinetic (PK) profile, safety, and tolerability after multiple-dose administrations of Formula (II) in the healthy subjects. Moreover, the study determined the effects of Formula (II) on peripheral blood T cells and myeloid-derived suppressor cells (MDSCs).
as §1
The occupancy of BTK by Formula (II) was measured in PBMCs with the aid of a biotin tagged Formula (II) analogue probe. The effect of Formula (II) on functional activation of B cells following BCR stimulation (measured via the phorphorylation of BTK and upregulation of CD69 and CD86 activation markers) was also evaluated.

[4] = Rat pharmacokinetics, oral gavage vs dietary administration in chow; type: in vivo
Description: To evaluate the effects of continuous low dose administration versus oral gavage administration of Formula (II), six male rats per group were treated with oral gavage administration of vehicle or Formula (II) at a dose of 30 mg/kg/day for 14 days. Six male rats per group were treated with dietary Formula (II) in chow at concentrations of 100 and 500 ppm; a control group (no vehicle, no chow) was also included in the study. All animals were evaluated for pharmacokinetics on Day 14, during the night cycle to accommodate the dietary groups. The spleens were collected at necroscopy and splenocytes were harvested and cryopreserved for BTK target occupancy analysis. The presence of inactivated BTK in normal splenocytes was measured using a BTK active-site specific probe in an ELISA assay. Plasma concentrations of Formula (II) were measured using liquid chromatography/mass spectroscopy; pharmacokinetic parameters were estimated using WinNonlin (Pharsight, Cetara).

MDA-MB-231 tumor cells = experiment: Osteolytic bone lesions after intratibial MDA-MB-231 tumor inoculation in nude rats; type: in vivo, rat; design: mean visual lysis score: scale not given here; mean left tibial density: unit not given here
Description: FIG. 40A, FIG. 40B, FIG. 40C, FIG. 40D, FIG. 40E, FIG. 40F, and FIG. 40G illustrate the bone density in hind limbs of nude rats (n=6 per group) implanted with intratibial MDA-MB231 tumor […] and treated for up to 41 days with vehicle control, zoledronate (active control) or varying doses of Formula (II). Oral gavage administration of Formula (II) was scheduled as 3 days of initial QD dosing, followed by 30 days of BID dosing at the following dose levels: 3/3, 30/30, and 180/90 mg/kg/day. An untreated group of rats, without tibial implants (n=3) represents bone density of concurrently obtained normal rat tibial images. Statistical significance was determined by two-way ANOVA-Dunnett: ns=not significant, *=P<0.05, **=P<0.01, ***=P<0.001, versus Group 1.
Rats were inoculated with MDA-MB-231 tumor cells on Day 1, baseline radiographs were taken on Day 2, and treatment with Formula (II) began on Day 8. Radiographs were taken on Days 10, 17, 24, 31, 38, and 41. Anti-osteolytic activities were determined from differences in bone density and visual lysis scores between the drug-treated and vehicle-treated groups on each observation day, and also from changes in bone density and visual lysis scores in tumor-inoculated left tibias at baseline (Day 2) compared to Days 10, 17, 24,31, 38, and 41.
Radiographs were blinded for both analyses. […] Visual osteolysis was not detected in any rat in the nave group. The 4% increase in mean bone density from baseline to study end presumably reflected normal growth in these rats.

[5] = 180 QD/90 BID mg/kg (Group 5), Day 31
[6] = 180 QD/90 BID mg/kg (Group 5), Day 41

T1 sequence (Q06187 whole entry): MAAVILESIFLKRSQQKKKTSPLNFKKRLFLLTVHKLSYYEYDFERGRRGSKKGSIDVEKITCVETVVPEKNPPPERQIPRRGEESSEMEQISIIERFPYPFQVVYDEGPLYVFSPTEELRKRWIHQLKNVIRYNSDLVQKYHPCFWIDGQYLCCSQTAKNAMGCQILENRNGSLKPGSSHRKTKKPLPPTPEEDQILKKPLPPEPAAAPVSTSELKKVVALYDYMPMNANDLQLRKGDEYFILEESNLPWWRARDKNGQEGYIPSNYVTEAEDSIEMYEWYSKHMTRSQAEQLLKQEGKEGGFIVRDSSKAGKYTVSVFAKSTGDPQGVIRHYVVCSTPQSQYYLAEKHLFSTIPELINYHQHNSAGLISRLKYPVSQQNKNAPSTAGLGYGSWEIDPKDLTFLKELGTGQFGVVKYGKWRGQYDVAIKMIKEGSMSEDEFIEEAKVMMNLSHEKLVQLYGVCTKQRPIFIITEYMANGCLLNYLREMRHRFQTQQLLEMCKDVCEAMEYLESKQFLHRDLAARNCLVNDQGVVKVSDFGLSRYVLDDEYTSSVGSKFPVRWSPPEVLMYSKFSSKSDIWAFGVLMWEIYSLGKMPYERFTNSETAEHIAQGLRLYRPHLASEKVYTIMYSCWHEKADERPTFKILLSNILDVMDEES

**Q.** Which “BCR-mediated signaling through BTK (p-BTK after ex vivo BCR stimulation)” value (BTK [1]) does the source give for `CC#CC(=O)N1CCC[C@H]1c1nc(-c2ccc(C(=O)Nc3ccccn3)cc2)c2c(N)nccn12` [Formula (II), (S)-4-(8-amino-3-(1-(but-2-ynoyl)pyrrolidin-2-yl)imidazo[1,5-a]pyrazin-1-yl)-N-(pyridin-2-yl)benzamide] here?
**A.** significantly inhibited; also recorded: decreased BTK activation

**Q.** What about the “accumulation or change in PK after repeat dosing” value [2] of the same molecule?
**A.** no apparent accumulation; also recorded: little to no accumulation or change in PK after repeat dosing

**Q.** And the “estimated half-life of occupied BTK (BTK resynthesis t1/2)” value (BTK [3]; 15 mg QD, Days 1 and 2, initial post-dose rate)?
**A.** 20 h

**Q.** And the “modeled rate of BTK resynthesis (t1/2)” value (BTK [3]; after 7 days dosing with 15 mg, and after a 25 mg BID dose)?
**A.** 119 h

**Q.** What about the “estimated half-life of occupied BTK (BTK resynthesis t1/2)” value (BTK [3]; after discontinuation of 15 mg QD x 7 days at steady state, later rate) of the same molecule?
**A.** 119 h

**Q.** What about the “modeled rate of BTK resynthesis (t1/2)” value (BTK [3]; early doses of 15 mg QD, or a single 25 mg QD dose) of the same molecule?
**A.** 20 h

**Q.** What about the receptor occupancy at 15 mg (BTK [3]; 15 mg QD for 7 days, read-out: peak BTK occupancy at steady state) of the same molecule?
**A.** > 90%

**Q.** What about the receptor occupancy at 15 mg (BTK [3]; 15 mg QD, Days 1 and 2, read-out: BTK target occupancy at the end of the dosing interval) of the same molecule?
**A.** ~60%

**Q.** What about the “Cmax as fraction of the AUC0-18 value” ([4]; dietary 100 and 500 ppm in chow, Day 14) of the same molecule?
**A.** 1/10

**Q.** And the Cmax ([4]; rat, plasma, oral gavage 30 mg/kg/day, Day 14, male rats)?
**A.** 506 ng/mL

**Q.** What about the AUC(0-t) ([4]; rat, plasma, oral gavage 30 mg/kg/day, Day 14, male rats, read-out: AUC0-12) of the same molecule?
**A.** 864 ng·h/mL

**Q.** And the “left tibial bone density compared to vehicle controls” value (MDA-MB-231 tumor cells; 3 or 30 mg/kg, any observation day excluding Day 24 for 30 mg/kg)?
**A.** no significant differences

**Q.** What about the “left intratibial densities compared to control Group 1” value (MDA-MB-231 tumor cells; 180 QD/90 BID mg/kg (Group 5)) of the same molecule?
**A.** significantly greater compared to control Group 1 on Day 31, but not Day 41

**Q.** What about the “mean left tibial density” value (MDA-MB-231 tumor cells; 180 QD/90 BID mg/kg (Group 5), Day 2 baseline) of the same molecule?
**A.** 201.4±0.6

**Q.** What about the “decrease in mean left tibial density” value (MDA-MB-231 tumor cells; 180 QD/90 BID mg/kg (Group 5), Day 2 to Days 31 and 41) of the same molecule?
**A.** 1-2%

**Q.** And the “mean left tibial density” value (MDA-MB-231 tumor cells; [5])?
**A.** 199.1±0.6

**Q.** What about the “mean visual lysis score” value (MDA-MB-231 tumor cells; [5]) of the same molecule?
**A.** 1.2

**Q.** What about the “mean left tibial density” value (MDA-MB-231 tumor cells; [6]) of the same molecule?
**A.** 197.2±0.6

**Q.** And the “mean visual lysis score” value (MDA-MB-231 tumor cells; [6])?
**A.** 1.5

**Q.** And the “rats that never developed visible left tibial lesions” value (MDA-MB-231 tumor cells; 180 QD/90 BID mg/kg (Group 5), n=6)?
**A.** Two rats
